According to US11180462B2, “Microbiocidal oxadiazole derivatives” (SYNGENTA PARTICIPATIONS AG, priority 2015, dated 2021):

How the values were obtained:
[1] = system: Puccinia recondita f. Sp. Tritici; test: Fungicidal activity against Puccinia recondita f. sp. tritici / wheat / leaf disc preventative (brown rust); format: in vivo; conditions: foliar, 200 ppm in the applied formulation, wheat leaf segments, preventative, compared to untreated control leaf disks, read-out: disease control
How it was run: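 Preventative leaf-segment test, wheat cv. Kanzler on water agar. Spray compound at 200 ppm, inoculate with spores 1 day later; 19° C., 75% rh, 12/12 h light. Read-out: % disease control vs untreated, 7 to 9 days after application.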

[2] = system: Puccinia recondita f. Sp. Tritici; test: Fungicidal activity against Puccinia recondita f. sp. tritici / wheat / leaf disc curative (brown rust); format: in vivo; conditions: foliar, 24 h, 200 ppm in the applied formulation, wheat leaf segments, curative (applied 1 day after inoculation), compared to untreated control leaf disks, read-out: disease control
How it was run: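 Curative leaf-segment test: compound diluted in water applied 1 day after spore inoculation of cv. Kanzler wheat segments on agar. Conditions 19° C, 75% RH, 12 h/12 h light cycle. Read-out: % disease control relative to untreated check, 6 to 8 days after application.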

Phakopsora Pachyrhizi = test: Fungicidal activity against Phakopsora pachyrhizi / soybean / leaf disc preventative (Asian soybean rust); format: in vivo; conditions: foliar, 200 ppm in the applied formulation, soybean leaf disks, compared to untreated control leaf disks, read-out: disease control
How it was run: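 Preventative soybean leaf-disc test: discs on water agar sprayed with diluted formulated compound, inoculated one day later with spores on the lower surface. Held 24–36 h dark at 20°C, 75% rh, then 12 h light/day; percent disease control versus untreated discs scored 12–14 days after application.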

[3] = system: Glomerella lagenarium (Colletotrichum lagenarium); test: Fungicidal activity against Glomerella lagenarium (Colletotrichum lagenarium) liquid culture / cucumber / preventative (anthracnose); format: cell-based; conditions: Colletotrichum orbiculare; 20 ppm in the applied formulation; liquid culture (PDB), growth inhibition measured photometrically after 3 to 4 days; compared to untreated control; read-out: disease control
How it was run: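 Photometric read-out of fungal growth after 2–7 days, expressed as percent antifungal activity versus untreated check. Cryo-stored conidia in PDB; compound at 20 ppm; dark, 24 °C, 96% RH.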

CCCN(Cc1ccc(-c2noc(C(F)(F)F)n2)cc1)C(=O)C1CC1 [Compound 1.574, N-propyl-N-[[4-[5-(trifluoromethyl)-1,2,4-oxadiazol-3-yl]phenyl]methyl]-cyclopropane-carboxamide]
≥ 80%: pest or weed control at 200 ppm [1] | pest or weed control at 200 ppm [2] | pest or weed control at 200 ppm (Phakopsora Pachyrhizi) | inhibition of growth at 20 ppm [3]

COCCN(Cc1ccc(-c2noc(C(F)(F)F)n2)cc1)C(=O)C1CC1 [Compound 1.363, N-(2-methoxyethyl)-N-[[4-[5-(trifluoromethyl)-1,2,4-oxadiazol-3-yl]phenyl]methyl]-cyclopropane-carboxamide]
≥ 80%: pest or weed control at 200 ppm [1] | pest or weed control at 200 ppm [2] | pest or weed control at 200 ppm (Phakopsora Pachyrhizi) | inhibition of growth at 20 ppm [3]

CC(C)N(Cc1ccc(-c2noc(C(F)(F)F)n2)cc1)C(=O)C1CCOC1 (stereo not drawn) [Compound 1.673, N-isopropyl-N-[[4-[5-(trifluoromethyl)-1,2,4-oxadiazol-3-yl]phenyl]methyl]-tetrahydrofuran-3-carboxamide]
≥ 80%: pest or weed control at 200 ppm [1] | pest or weed control at 200 ppm [2] | pest or weed control at 200 ppm (Phakopsora Pachyrhizi) | inhibition of growth at 20 ppm [3]

CON(Cc1ccc(-c2noc(C(F)(F)F)n2)cc1)C(=O)C1CCC1 [Compound 1.38, N-methoxy-N-[[4-[5-(trifluoromethyl)-1,2,4-oxadiazol-3-yl]phenyl]methyl]-cyclobutane-carboxamide]
≥ 80%: pest or weed control at 200 ppm [1] | pest or weed control at 200 ppm [2] | pest or weed control at 200 ppm (Phakopsora Pachyrhizi) | inhibition of growth at 20 ppm [3]

CON(Cc1c(F)cc(-c2noc(C(F)(F)F)n2)cc1F)C(=O)C1CC1 [Compound 1.596, N-[[2,6-difluoro-4-[5-(trifluoromethyl)-1,2,4-oxadiazol-3-yl]phenyl]methyl]-N-methoxy-cyclopropane-carboxamide]
≥ 80%: pest or weed control at 200 ppm [1] | pest or weed control at 200 ppm [2] | pest or weed control at 200 ppm (Phakopsora Pachyrhizi) | inhibition of growth at 20 ppm [3]

CON(Cc1ccc(-c2noc(C(F)(F)F)n2)cc1)C(=O)C1CCCC1 [Compound 1.27, N-methoxy-N-[[4-[5-(trifluoromethyl)-1,2,4-oxadiazol-3-yl]phenyl]methyl]-cyclopentane-carboxamide]
≥ 80%: pest or weed control at 200 ppm [1] | pest or weed control at 200 ppm [2] | pest or weed control at 200 ppm (Phakopsora Pachyrhizi) | inhibition of growth at 20 ppm [3]

CC(C)C(=O)N(Cc1ccc(-c2noc(C(F)(F)F)n2)cc1)C1CC1 [Compound 1.87, N-cyclopropyl-2-methyl-N-[[4-[5-(trifluoromethyl)-1,2,4-oxadiazol-3-yl]phenyl]methyl]-propanamide]
≥ 80%: pest or weed control at 200 ppm [1] | pest or weed control at 200 ppm [2] | pest or weed control at 200 ppm (Phakopsora Pachyrhizi) | inhibition of growth at 20 ppm [3]

CON(Cc1ccc(-c2noc(C(F)(F)F)n2)cc1)C(=O)C1(C)COC1 [Compound 1.50, N-methoxy-3-methyl-N-[[4-[5-(trifluoromethyl)-1,2,4-oxadiazol-3-yl]phenyl]methyl]-oxetane-3-carboxamide]
≥ 80%: pest or weed control at 200 ppm [1] | pest or weed control at 200 ppm [2] | pest or weed control at 200 ppm (Phakopsora Pachyrhizi) | inhibition of growth at 20 ppm [3]

CC(=O)N(Cc1ccc(-c2noc(C(F)(F)F)n2)cc1)C(C)C [Compound 1.687, N-isopropyl-N-[[4-[5-(trifluoromethyl)-1,2,4-oxadiazol-3-yl]phenyl]methyl]-acetamide]
≥ 80%: pest or weed control at 200 ppm [1] | pest or weed control at 200 ppm [2] | pest or weed control at 200 ppm (Phakopsora Pachyrhizi) | inhibition of growth at 20 ppm [3]

CN(Cc1ccc(-c2noc(C(F)(F)F)n2)cc1)C(=O)C1OCCO1 [Compound 1.531, N-methyl-N-[[4-[5-(trifluoromethyl)-1,2,4-oxadiazol-3-yl]phenyl]methyl]-1,3-dioxolane-2-carboxamide]
≥ 80%: pest or weed control at 200 ppm [1] | pest or weed control at 200 ppm [2] | pest or weed control at 200 ppm (Phakopsora Pachyrhizi) | inhibition of growth at 20 ppm [3]

O=C(C1CC1(F)F)N(Cc1ccc(-c2noc(C(F)(F)F)n2)cc1)C1CC1 (stereo not drawn) [Compound 1.89, N-cyclopropyl-2,2-difluoro-N-[[4-[5-(trifluoromethyl)-1,2,4-oxadiazol-3-yl]phenyl]methyl]-cyclopropane-carboxamide]
≥ 80%: pest or weed control at 200 ppm [1] | pest or weed control at 200 ppm [2] | pest or weed control at 200 ppm (Phakopsora Pachyrhizi) | inhibition of growth at 20 ppm [3]

CC1(C(=O)N(CCO)Cc2ccc(-c3noc(C(F)(F)F)n3)cc2)CC1 [Compound 1.718, N-(2-hydroxyethyl)-1-methyl-N-[[4-[5-(trifiuoromethyl)-1,2,4-oxadiazol-3-yl]phenyl]methyl]-cyctopropane-carboxamide]
≥ 80%: pest or weed control at 200 ppm [1] | pest or weed control at 200 ppm [2] | pest or weed control at 200 ppm (Phakopsora Pachyrhizi) | inhibition of growth at 20 ppm [3]

CCC(C)N(Cc1ccc(-c2noc(C(F)(F)F)n2)cc1)C(=O)C1CCCO1 (stereo not drawn) [Compound 1.398, N-sec-butyl-N-[[4-[5-(trifluoromethyl)-1,2,4-oxadiazol-3-yl]phenyl]methyl]-tetrahydrofuran-2-carboxamide]
≥ 80%: pest or weed control at 200 ppm [1] | pest or weed control at 200 ppm [2] | pest or weed control at 200 ppm (Phakopsora Pachyrhizi) | inhibition of growth at 20 ppm [3]

C#CCN(C)C(=O)N(Cc1ccc(-c2noc(C(F)(F)F)n2)cc1)OC [Compound 3.61, 1-methoxy-3-methyl-3-prop-2-ynyl-1-[[4-[5-(trifluoromethyl)-1,2,4-oxadiazol-3-yl]phenyl]methyl]urea]
≥ 80%: pest or weed control at 200 ppm [1] | pest or weed control at 200 ppm [2] | pest or weed control at 200 ppm (Phakopsora Pachyrhizi) | inhibition of growth at 20 ppm [3]

C=CCN(Cc1ccc(-c2noc(C(F)(F)F)n2)cc1)C(=O)CCOC [Compound 1.476, N-allyl-3-methoxy-N-[[4-[5-(trifluoromethyl)-1,2,4-oxadiazol-3-yl]phenyl]methyl]-propanamide]
≥ 80%: pest or weed control at 200 ppm [1] | pest or weed control at 200 ppm [2] | pest or weed control at 200 ppm (Phakopsora Pachyrhizi) | inhibition of growth at 20 ppm [3]

COC(=O)ON(Cc1ccc(-c2noc(C(F)(F)F)n2)cc1)C(=O)OC [Compound 2.25, [methoxycarbonyl-[[4-[5-(trifluoromethyl)-1,2,4-oxadiazol-3-yl]phenyl]methyl]-amino]methyl carbonate]
≥ 80%: pest or weed control at 200 ppm [1] | pest or weed control at 200 ppm [2] | pest or weed control at 200 ppm (Phakopsora Pachyrhizi) | inhibition of growth at 20 ppm [3]

O=C(C1CCCO1)N(Cc1ccc(-c2noc(C(F)(F)F)n2)cc1)CC1CC1 (stereo not drawn) [Compound 1.242, N-(cyclopropylmethyl)-N-[[4-[5-(trifluoromethyl)-1,2,4-oxadiazol-3-yl]phenyl]methyl]-tetrahydrofuran-2-carboxamide]
≥ 80%: pest or weed control at 200 ppm [1] | pest or weed control at 200 ppm [2] | pest or weed control at 200 ppm (Phakopsora Pachyrhizi) | inhibition of growth at 20 ppm [3]

COCCCC(=O)N(CCOC)Cc1ccc(-c2noc(C(F)(F)F)n2)cc1 [Compound 1.365, 4-methoxy-N-(2-methoxyethyl)-N-[[4-[5-(trifluoromethyl)-1,2,4-oxadiazol-3-yl]phenyl]methyl]-butanamide]
≥ 80%: pest or weed control at 200 ppm [1] | pest or weed control at 200 ppm [2] | pest or weed control at 200 ppm (Phakopsora Pachyrhizi) | inhibition of growth at 20 ppm [3]
